From EP0908457B1, “3-(1,2-benzisothiazol- and isoxazol-5-Y1)-2,4(1H,3H)-pyrimidinedione or thione and 3-(1,2-benzisothiazol- and isoxazol-5-y1)-4(3H)-pyrimidinone or thione herbicidal agents” (BASF AKTIENGESELLSCHAFT, priority 1997, dated 1999)

What was measured:
[1] = system: Monochoria vaginalis, Presl.; assay: Preemergence weed control under flooded paddy conditions, MOOVA (Monochoria); format: in vivo; conditions: preemergence, flooded paddy, rated 3-4 weeks after treatment
[2] = system: Cyperus serotinus, Rottb.; assay: Preemergence weed control under flooded paddy conditions, CYPSE (Flatsedge); format: in vivo; conditions: preemergence, rated 3-4 weeks after treatment
[3] = system: Cyperus iria; assay: Preemergence weed control under flooded paddy conditions, CYPIR (Rice Flatsedge); format: in vivo; conditions: preemergence, flooded paddy, rated 3-4 weeks after treatment
[4] = system: Oryza sativa, (L.) Tebonnet; assay: Rice tolerance to post-transplant applications under flooded paddy conditions (Example 187), ORYSAT (Rice, Tebonnet); conditions: rated 3-4 weeks after treatment
[5] = system: Sagittaria pygmaea, L.; assay: Preemergence weed control under flooded paddy conditions, SAGPY (Arrowhead (Pygmaea)); format: in vivo; conditions: preemergence, flooded paddy, rated 3-4 weeks after treatment
[6] = system: Echinochloa oryzoides (Ard.) Fritsch.; assay: Preemergence weed control under flooded paddy conditions, ECHORC (Watergrass (Calif.)); format: in vivo; conditions: preemergence, flooded paddy, rated 3-4 weeks after treatment
Also: meaning of each grade not given here.

| Compound | herbicidal effect rating, MOOVA ([1]; Rate 0.0620 kg/ha) | herbicidal effect rating, MOOVA ([1]; Rate 0.1250 kg/ha) | herbicidal effect rating, MOOVA ([1]; Rate 0.2500 kg/ha) | herbicidal effect rating, MOOVA ([1]; Rate 0.5000 kg/ha) | herbicidal effect rating, CYPSE ([2]; Rate 0.1250 kg/ha) | herbicidal effect rating, CYPSE ([2]; Rate 0.2500 kg/ha) | herbicidal effect rating, CYPSE ([2]; Rate 0.5000 kg/ha) | herbicidal effect rating, CYPIR ([3]; Rate 0.0620 kg/ha) | herbicidal effect rating, CYPIR ([3]; Rate 0.1250 kg/ha) | herbicidal effect rating, CYPIR ([3]; Rate 0.2500 kg/ha) | herbicidal effect rating, CYPIR ([3]; Rate 0.5000 kg/ha) | herbicidal effect rating ORYSAT ([4]; Rate 0.0620 kg/ha) | herbicidal effect rating ORYSAT ([4]; Rate 0.1250 kg/ha) | herbicidal effect rating ORYSAT ([4]; Rate 0.2500 kg/ha) | herbicidal effect rating ORYSAT ([4]; Rate 0.5000 kg/ha) | herbicidal effect rating, SAGPY ([5]; Rate 0.0620 kg/ha) | herbicidal effect rating, SAGPY ([5]; Rate 0.1250 kg/ha) | herbicidal effect rating, SAGPY ([5]; Rate 0.2500 kg/ha) | herbicidal effect rating, SAGPY ([5]; Rate 0.5000 kg/ha) | herbicidal effect rating, ECHORC ([6]; Rate 0.0620 kg/ha) | also measured |
| --- | --- | --- | --- | --- | --- | --- | --- | --- | --- | --- | --- | --- | --- | --- | --- | --- | --- | --- | --- | --- | --- |
| C=CS(=O)(=O)NC(=O)COc1ccccc1-c1nsc2ccc(-n3c(=O)cc(C(F)(F)F)n(C)c3=O)cc12 [Example 557, Acetamide, 2-{o-{5-[3,6-dihydro-3-methyl-2,6-dioxo-4-(trifluoromethyl)-1(2H)-pyrimidinyl]-1,2-benzisothiazol-3-yl}phenoxy}-N-(vinylsulfonyl)-] | 9.0 | 9.0 | 9.0 | 9.0 | 6.0 | 9.0 | 5.0 | 8.0 | 9.0 | 9.0 | 9.0 | 8.0 | 8.0 | 9.0 | 9.0 | 0.0 | 2.0 | 4.0 | 4.0 | 5.1 | herbicidal effect rating, MOOVA ([1]; Rate 0.0320 kg/ha): 9.0; herbicidal effect rating, CYPSE ([2]; Rate 0.0320 kg/ha): 0.0; herbicidal effect rating, CYPIR ([3]; Rate 0.0320 kg/ha): 4.0; herbicidal effect rating ORYSAT ([4]; Rate 0.0320 kg/ha): 6.0; herbicidal effect rating, SAGPY ([5]; Rate 0.0320 kg/ha): 0.0; herbicidal effect rating, ECHORC ([6]; Rate 0.0320 kg/ha): 4.3; herbicidal effect rating, ECHORC ([6]; Rate 0.1250 kg/ha): 6.3; herbicidal effect rating, ECHORC ([6]; Rate 0.2500 kg/ha): 9.0; herbicidal effect rating, ECHORC ([6]; Rate 0.5000 kg/ha): 9.0 |
| CCS(=O)(=O)NC(=O)COc1ccccc1-c1nsc2ccc(-n3c(=O)cc(C(F)(F)F)n(C)c3=O)cc12 [Example 558, Acetamide, 2-{o-{5-[3,6-dihydro-3-methyl-2,6-dioxo-4-(trifluoromethyl)-1(2H)-pyrimidinyl]-1,2-benzisothiazol-3-yl}phenoxy}-N-(ethylsulfonyl)-] | 9.0 | 9.0 | 9.0 | 9.0 | 9.0 | 9.0 | 9.0 | 6.0 | 8.0 | 9.0 | 9.0 | 7.0 | 9.0 | 9.0 | 9.0 | 2.0 | 4.0 | 8.0 | 4.0 | 4.7 | herbicidal effect rating, MOOVA ([1]; Rate 0.0320 kg/ha): 9.0; herbicidal effect rating, CYPIR ([3]; Rate 0.0320 kg/ha): 2.0; herbicidal effect rating ORYSAT ([4]; Rate 0.0320 kg/ha): 4.0; herbicidal effect rating, SAGPY ([5]; Rate 0.0320 kg/ha): 2.0; herbicidal effect rating, ECHORC ([6]; Rate 0.0320 kg/ha): 4.3; herbicidal effect rating, ECHORC ([6]; Rate 0.1250 kg/ha): 7.0; herbicidal effect rating, ECHORC ([6]; Rate 0.2500 kg/ha): 9.0; herbicidal effect rating, ECHORC ([6]; Rate 0.5000 kg/ha): 9.0 |
| CCOC(=O)C(F)(F)Oc1ccc(C)cc1-c1nsc2ccc(-n3c(=O)cc(C(F)(F)F)n(C)c3=O)cc12 [Example 559, Acetic acid, {{2-{5-[3,6-dihydro-3-methyl-2,6-dioxo-4-(trifluoromethyl)-1(2H)-pyrimidinyl]-1,2-benzisothiazol-3-yl}-p-tolyl}oxy}difluoro-, ethyl ester] | 9.0 | 9.0 | 9.0 | 9.0 | 0.0 | 9.0 | 9.0 | 0.0 | 0.0 | 0.0 | 4.0 | 1.0 | 1.0 | 2.0 | 2.0 | 0.0 | 0.0 | 0.0 | 0.0 | 3.0 | herbicidal effect rating, CYPSE ([2]; Rate 0.0620 kg/ha): 0.0; herbicidal effect rating, ECHORC ([6]; Rate 0.1250 kg/ha): 3.0; herbicidal effect rating, ECHORC ([6]; Rate 0.2500 kg/ha): 6.0; herbicidal effect rating, ECHORC ([6]; Rate 0.5000 kg/ha): 9.0 |
| Cc1ccc(OCC(=O)NS(=O)(=O)C(C)C)c(-c2nsc3ccc(-n4c(=O)cc(C(F)(F)F)n(C)c4=O)cc23)c1 [Example 560, Acetamide, 2-{{2-{5-[3,6-dihydro-3-methyl-2,6-dioxo-4-(trifluoromethyl)-1(2H)-pyrimidinyl]-1,2-benzisothiazol-3-yl}-p-tolyl}oxy}-N-(isopropylsulfonyl)-] | 9.0 | 9.0 | 9.0 | 9.0 | 7.0 | 9.0 | 9.0 | 2.0 | 7.0 | 9.0 | 3.0 | 3.0 | 2.0 | 4.0 | 2.0 | 0.0 | 0.0 | 0.0 | 0.0 | 3.0 | herbicidal effect rating, MOOVA ([1]; Rate 0.0320 kg/ha): 8.0; herbicidal effect rating, CYPSE ([2]; Rate 0.0320 kg/ha): 0.0; herbicidal effect rating, CYPSE ([2]; Rate 0.0620 kg/ha): 2.0; herbicidal effect rating, CYPIR ([3]; Rate 0.0320 kg/ha): 0.0; herbicidal effect rating ORYSAT ([4]; Rate 0.0320 kg/ha): 3.0; herbicidal effect rating, SAGPY ([5]; Rate 0.0320 kg/ha): 0.0; herbicidal effect rating, ECHORC ([6]; Rate 0.0320 kg/ha): 2.0; herbicidal effect rating, ECHORC ([6]; Rate 0.1250 kg/ha): 4.6; herbicidal effect rating, ECHORC ([6]; Rate 0.2500 kg/ha): 9.0; herbicidal effect rating, ECHORC ([6]; Rate 0.5000 kg/ha): 7.0 |
| CNC(=O)COc1ccc(C)cc1-c1nsc2ccc(-n3c(=O)cc(C(F)(F)F)n(C)c3=O)cc12 [Example 561, Acetamide, 2-{{2-{5-[3,6-dihydro-3-methyl-2,6-dioxo-4-(trifluoromethyl)-1(2H)-pyrimidinyl]-1,2-benzisothiazol-3-yl}-p-tolyl}oxy}-N-methyl-] | 9.0 | 9.0 | 9.0 | 9.0 | 0.0 | 0.0 | 9.0 | 6.0 | 8.5 | 9.0 | 6.0 | 4.0 | 3.5 | 4.5 | 2.0 | 0.0 | 1.0 | 3.0 | 0.0 | 4.8 | herbicidal effect rating, MOOVA ([1]; Rate 0.0320 kg/ha): 9.0; herbicidal effect rating, CYPSE ([2]; Rate 0.0320 kg/ha): 0.0; herbicidal effect rating, CYPSE ([2]; Rate 0.0620 kg/ha): 0.0; herbicidal effect rating, CYPIR ([3]; Rate 0.0320 kg/ha): 3.0; herbicidal effect rating ORYSAT ([4]; Rate 0.0320 kg/ha): 2.5; herbicidal effect rating, SAGPY ([5]; Rate 0.0320 kg/ha): 0.0; herbicidal effect rating, ECHORC ([6]; Rate 0.0320 kg/ha): 3.6; herbicidal effect rating, ECHORC ([6]; Rate 0.1250 kg/ha): 6.4; herbicidal effect rating, ECHORC ([6]; Rate 0.2500 kg/ha): 9.0; herbicidal effect rating, ECHORC ([6]; Rate 0.5000 kg/ha): 9.0 |
